Measured values from PubChem BioAssay AID1053168 (Broad Institute, 2014).
Active and inactive are the calls of the source. No rule for the calls is given here.

Key:
[1] = Vaccinia infected cells, stage specific inhibitors, mcherry venus reporter fluorescence, confirmatory dose response (AID 1053168); conditions: Vaccinia-infected cells, mCherry/Venus stage reporter fluorescence; at 21 µM (top of the series)
[2] = tested on: Vaccinia-infected cells, mCherry/Venus stage reporter fluorescence; experiment: as above
[3] = measured here: mCherry reporter AC50
[4] = measured here: Venus reporter AC50

Row | Compound | activity change, negative = inhibition [1] | AC50 [2, 3] | AC50 [2] | AC50 [2, 4]
1 | CCCNC(=O)c1cc2c(c(-c3cccc(-c4cccc(F)c4)c3)n1)[C@H](CCO)N([S@@](=O)C(C)(C)C)C2 | -8.81% (inactive) | > 42 µM | – | –
2 | COc1ccccc1-c1ccc2c(c1)[C@H]1[C@H](CCN1C(=O)C1CCCCC1)[C@@H](CO)N2 | – | 18.6 µM | 18.6 µM | –
3 | C[C@H](O)C#Cc1ccc2c(c1)O[C@H](CN(C)Cc1ccc(-c3ccccc3)cc1)[C@@H](C)CN([C@@H](C)CO)S2(=O)=O | – | 16.4 µM | 16.4 µM | 15.9 µM
4 | OC[C@H]1Nc2ccc(-c3cccc(F)c3)cc2[C@H]2[C@@H]1CCN2Cc1ccc(F)cc1 | -30.8% (inactive) | > 42 µM | – | –
5 | C[C@H](O)C#Cc1ccc2c(c1)O[C@H](CN(C)Cc1ccc(-c3ccccc3)cc1)[C@H](C)CN([C@H](C)CO)S2(=O)=O | – | 17.1 µM | 17.1 µM | 20.3 µM
6 | C[C@H](O)C#Cc1ccc2c(c1)O[C@H](CN(C)Cc1ccccc1)[C@@H](C)CN([C@@H](C)CO)S2(=O)=O | -24.7% (inactive) | > 42 µM | – | > 42 µM
7 | O=C(Nc1ccc2c(c1)[C@@H]1C[C@@H](CC(=O)N3CCCCC3)O[C@@H](CO)[C@@H]1O2)Nc1ccccc1F | 3.1% (inactive) | – | – | –
8 | C[C@H](O)C#Cc1ccc2c(c1)O[C@@H](CN(C)Cc1ccc(-c3ccccc3)cc1)[C@H](C)CN([C@@H](C)CO)S2(=O)=O | – | 21.8 µM | 21.8 µM | 20.5 µM
9 | C[C@H](CO)N1C[C@H](C)[C@@H](CN(C)S(=O)(=O)c2ccc(Cl)cc2)Oc2c(NS(=O)(=O)c3cn(C)cn3)cccc2C1=O | -2.63% (inactive) | – | – | –
10 | CCOC(=O)[C@@H]1[C@@H]2C=C[C@]3(O2)[C@H](C(=O)NCc2ccccc2)N(CCCCCCO)C(=O)[C@@H]13 | -18.7% (inactive) | > 42 µM | – | > 42 µM
11 | C[C@@H](O)C#Cc1ccc2c(c1)O[C@H](CN(C)Cc1ccc(-c3ccccc3)cc1)[C@@H](C)CN([C@@H](C)CO)S2(=O)=O | – | 18.9 µM | 18.9 µM | 20.8 µM
12 | CN(C)C(=O)c1ccc(-c2cccc(-c3nc(C(=O)NC4CCCC4)cc4c3[C@H](CCO)N([S@@](=O)C(C)(C)C)C4)c2)cc1 | -8.2% (inactive) | – | – | –
13 | CN1c2ccc(C#Cc3cccnc3)cc2[C@@H]2[C@@H](CCN2C(=O)C2CCC2)[C@@H]1CO | 10.1% (inactive) | – | – | –
14 | C[C@H](O)C#Cc1ccc2c(c1)O[C@H](CN(C)Cc1ccccc1)[C@H](C)CN([C@H](C)CO)S2(=O)=O | -3.27% (inactive) | – | – | –
15 | CN1c2ccc(C#Cc3cccnc3)cc2[C@@H]2[C@@H](CCN2C(=O)C2CCC2)[C@H]1CO | -4.64% (inactive) | – | – | –
16 | C[C@H](O)C#Cc1ccc2c(c1)O[C@@H](CN(C)Cc1ccc(-c3ccccc3)cc1)[C@@H](C)CN([C@@H](C)CO)S2(=O)=O | -12.2% (inactive) | > 42 µM | – | > 42 µM
17 | C[C@H](CO)N1C[C@H](C)[C@H](CN(C)Cc2ccc(-c3ccccc3)cc2)Oc2cc(C#C[C@@H](C)O)ccc2S1(=O)=O | -20% (inactive) | > 42 µM | – | > 42 µM
18 | C[C@H]1CCCCO[C@H](CN(C)S(=O)(=O)c2ccc(Cl)cc2)[C@@H](C)CN([C@@H](C)CO)C(=O)c2cc(NC(=O)Nc3ccc(F)cc3)ccc2O1 | -17.8% (inactive) | > 42 µM | – | > 42 µM
19 | COc1ccccc1CN1CC[C@@H]2[C@@H](CO)Nc3ccc(-c4ccc(C(=O)N(C)C)cc4)cc3[C@@H]21 | -12.1% (inactive) | > 42 µM | – | > 42 µM
20 | CN(C)C(=O)c1ccc(-c2cccc(-c3nc(C(=O)NC4CCCCC4)cc4c3[C@@H](CCO)N([S@](=O)C(C)(C)C)C4)c2)cc1 | -8.97% (inactive) | – | – | –
21 | Cc1noc(C)c1S(=O)(=O)Nc1ccc2c(c1)C(=O)N([C@@H](C)CO)C[C@@H](C)[C@H](CN(C)S(=O)(=O)c1cccs1)O2 | -3.33% (inactive) | – | – | –
22 | C[C@@H](O)C#Cc1ccc2c(c1)O[C@@H](CN(C)Cc1ccc(-c3ccccc3)cc1)[C@@H](C)CN([C@@H](C)CO)S2(=O)=O | – | 3.67 µM | 3.67 µM | –
23 | C[C@H](O)C#Cc1ccc2c(c1)O[C@H](CN(C)Cc1ccccc1)[C@H](C)CN([C@@H](C)CO)S2(=O)=O | -6.79% (inactive) | – | – | –
24 | C[C@H](O)C#Cc1ccc2c(c1)O[C@H](CN(C)Cc1ccccc1)[C@@H](C)CN([C@H](C)CO)S2(=O)=O | -3.87% (inactive) | > 42 µM | – | –
25 | C[C@@H]1CN([C@@H](C)CO)S(=O)(=O)c2ccc(C#C[C@@H](C)O)cc2O[C@@H]1CN(C)Cc1ccccc1 | -27% (inactive) | – | – | > 42 µM
26 | C[C@@H]1CN([C@H](C)CO)S(=O)(=O)c2ccc(C#C[C@@H](C)O)cc2O[C@H]1CN(C)Cc1ccccc1 | -15.2% (inactive) | – | – | –
